From ChEMBL document CHEMBL2177034, “Inhibition of hypoxia inducible factor-2 transcription: isolation of active modulators from marine sponges” (J Nat Prod, 2012)
One block for each compound: values may come before it. Calls of active or inactive are those of the source. The rule behind the calls is not given here.

Assays:
[1] = target: T1, Endothelial PAS domain-containing protein 1 (Homo sapiens, UniProt Q99814); assay: Inhibition of HIF2alpha in human 786-0 cells assessed as reduction in GLUT1 mRNA expression after 48 hrs by RT-PCR analysis; type: cell-based
[2] = Downregulation of HIF1alpha mRNA expression in human SK-RC-28 cells after 48 hrs by RT-PCR analysis; type: functional, cell-based
[3] = target: Hypoxia inducible factors; HIF-1-alpha, HIF-2-alpha (Homo sapiens) (UniProt Q16665+Q99814); assay: Inhibition of HIF1alpha/2alpha in human RCC4 cells assessed as reduction in VEGFA mRNA expression after 48 hrs by RT-PCR analysis; type: cell-based
786-0 [4] = assay: Down regulation of carbonic anhydrase 9 expression in human 786-0 cells after 48 hrs by RT-PCR analysis; type: functional, cell-based
[5] = target: Hypoxia-inducible factor 1-alpha (Homo sapiens) (UniProt Q16665); assay: Inhibition of HIF1alpha in human SK-RC-28 cells assessed as reduction in VEGFA after 48 hrs by RT-PCR analysis; type: cell-based
[6] = target: T1, Endothelial PAS domain-containing protein 1; assay: Inhibition of HIF2alpha in human RCC4 cells coexpressing HIF1alpha assessed as reduction in CCND1 mRNA expression after 48 hrs by RT-PCR analysis; type: cell-based
[7] = Downregulation of HIF2alpha mRNA expression in human SK-RC-28 cells after 48 hrs by RT-PCR analysis; type: functional, cell-based
786-0 [8] = assay: Downregulation of HIF2alpha mRNA expression in human 786-0 cells after 48 hrs by RT-PCR analysis; type: functional, cell-based
[9] = target: T1, Endothelial PAS domain-containing protein 1; assay: Inhibition of HIF2alpha in human 786-0 cells assessed as reduction in TGFalpha mRNA expression after 48 hrs by RT-PCR analysis; type: cell-based
[10] = Downregulation of HIF1alpha mRNA expression in human RCC4 cells after 48 hrs by RT-PCR analysis; type: functional, cell-based
[11] = target: T1, Endothelial PAS domain-containing protein 1; assay: Inhibition of HIF2alpha in human 786-0 cells assessed as reduction in VEGFA after 48 hrs by RT-PCR analysis; type: cell-based
[12] = target: Hypoxia-inducible factor 1-alpha (Homo sapiens) (UniProt Q16665); assay: Inhibition of HIF1alpha in human SK-RC-28 cells assessed as reduction in carbonic anhydrase 9 expression after 48 hrs by RT-PCR analysis; type: cell-based
[13] = Downregulation of TGFalpha mRNA expression in human SK-RC-28 cells after 48 hrs by RT-PCR analysis; type: functional, cell-based
[14] = target: T1, Endothelial PAS domain-containing protein 1; assay: Inhibition of HIF2alpha in human RCC4 cells coexpressing HIF1alpha assessed as reduction in GLUT1 mRNA expression after 48 hrs by RT-PCR analysis; type: cell-based
[15] = Downregulation of CCND1 mRNA expression in human SK-RC-28 cells after 48 hrs by RT-PCR analysis; type: functional, cell-based
[16] = target: T1, Endothelial PAS domain-containing protein 1; assay: Inhibition of HIF2alpha in human 786-0 cells assessed as reduction in CCND1 mRNA expression after 48 hrs by RT-PCR analysis; type: cell-based
[17] = Downregulation of HIF2alpha mRNA expression in human RCC4 cells after 48 hrs by RT-PCR analysis; type: functional, cell-based
786-0 [18] = assay: Downregulation of HIF1alpha mRNA expression in human 786-0 cells after 48 hrs by RT-PCR analysis; type: functional, cell-based
[19] = target: T1, Endothelial PAS domain-containing protein 1; assay: Inhibition of HIF2alpha in human 786-0 cells expressing truncated HIF1alpha assessed as reduction in luciferase activity after 24 hrs by reporter gene assay; type: cell-based
[20] = Downregulation of GLUT1 mRNA expression in human SK-RC-28 cells after 48 hrs by RT-PCR analysis; type: functional, cell-based
[21] = target: T1, Endothelial PAS domain-containing protein 1; assay: Inhibition of HIF2alpha in human RCC4 cells coexpressing HIF1alpha assessed as reduction in TGFalpha mRNA expression after 48 hrs by RT-PCR analysis; type: cell-based
[22] = target: Hypoxia-inducible factor 1-alpha (Homo sapiens) (UniProt Q16665); assay: Inhibition of HIF1alpha in human RCC4 cells coexpressing HIF2alpha assessed as decrease in carbonic anhydrase 9 mRNA expression after 48 hrs by RT-PCR analysis; type: cell-based

T1 sequence (Q99814 whole entry, the tested form may be a part): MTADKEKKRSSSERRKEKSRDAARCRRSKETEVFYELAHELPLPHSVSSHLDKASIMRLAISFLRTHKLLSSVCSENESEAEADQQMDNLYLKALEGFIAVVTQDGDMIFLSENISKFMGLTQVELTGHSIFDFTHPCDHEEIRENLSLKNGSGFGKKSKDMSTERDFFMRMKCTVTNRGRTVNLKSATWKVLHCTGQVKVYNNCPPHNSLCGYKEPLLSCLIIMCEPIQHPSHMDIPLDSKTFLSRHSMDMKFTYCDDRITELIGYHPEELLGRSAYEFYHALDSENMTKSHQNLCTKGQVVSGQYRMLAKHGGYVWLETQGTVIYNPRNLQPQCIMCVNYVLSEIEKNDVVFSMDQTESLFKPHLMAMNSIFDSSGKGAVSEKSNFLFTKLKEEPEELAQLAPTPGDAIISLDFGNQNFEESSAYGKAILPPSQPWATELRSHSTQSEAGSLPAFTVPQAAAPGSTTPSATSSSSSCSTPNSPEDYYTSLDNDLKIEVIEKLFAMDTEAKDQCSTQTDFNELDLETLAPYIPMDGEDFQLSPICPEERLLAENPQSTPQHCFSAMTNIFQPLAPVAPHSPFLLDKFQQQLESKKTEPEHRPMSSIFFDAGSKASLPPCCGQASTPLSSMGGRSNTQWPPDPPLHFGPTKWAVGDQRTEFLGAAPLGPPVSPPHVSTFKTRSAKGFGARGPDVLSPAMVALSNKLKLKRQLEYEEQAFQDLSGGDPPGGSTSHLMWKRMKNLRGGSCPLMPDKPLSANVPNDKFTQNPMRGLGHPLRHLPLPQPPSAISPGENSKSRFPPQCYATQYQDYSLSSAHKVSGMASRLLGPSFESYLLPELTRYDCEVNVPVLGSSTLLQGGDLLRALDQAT
Hypoxia-inducible factor 1-alpha (Homo sapiens), sequence (Q16665 whole entry, looked up, the tested form may be a part): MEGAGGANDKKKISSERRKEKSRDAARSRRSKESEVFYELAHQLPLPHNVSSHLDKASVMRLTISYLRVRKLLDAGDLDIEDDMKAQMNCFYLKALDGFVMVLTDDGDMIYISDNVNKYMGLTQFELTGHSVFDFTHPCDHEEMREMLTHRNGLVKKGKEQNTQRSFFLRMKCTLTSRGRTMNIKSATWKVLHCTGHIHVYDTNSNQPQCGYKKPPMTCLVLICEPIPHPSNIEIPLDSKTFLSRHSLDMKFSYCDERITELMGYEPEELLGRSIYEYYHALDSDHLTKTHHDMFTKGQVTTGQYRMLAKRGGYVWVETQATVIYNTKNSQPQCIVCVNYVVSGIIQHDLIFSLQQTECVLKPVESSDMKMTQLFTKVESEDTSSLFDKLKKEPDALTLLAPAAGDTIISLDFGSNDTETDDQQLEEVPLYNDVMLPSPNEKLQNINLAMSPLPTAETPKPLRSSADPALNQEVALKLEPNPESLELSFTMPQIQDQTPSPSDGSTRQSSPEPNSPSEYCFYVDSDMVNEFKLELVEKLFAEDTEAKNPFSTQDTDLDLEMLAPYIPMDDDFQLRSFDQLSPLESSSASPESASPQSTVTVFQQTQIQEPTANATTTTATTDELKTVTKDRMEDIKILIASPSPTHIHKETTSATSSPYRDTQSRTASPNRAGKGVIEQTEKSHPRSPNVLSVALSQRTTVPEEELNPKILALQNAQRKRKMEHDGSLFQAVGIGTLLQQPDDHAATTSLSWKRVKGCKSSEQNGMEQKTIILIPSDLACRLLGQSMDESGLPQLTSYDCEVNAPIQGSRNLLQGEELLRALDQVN

inhibition [1]: inactive
inhibition [3]: inactive
inhibition [5]: inactive
inhibition [6]: inactive
inhibition [9]: inactive
inhibition [11]: inactive
inhibition [12]: inactive
inhibition [14]: inactive
inhibition [16]: inactive
EC50 [19]: > 100 µM
inhibition [21]: inactive
inhibition [22]: inactive
SMILES: C/C=C(/C)C(=O)OCc1nccc2c1C(=O)C(O)=C(C)C2=O
Activity [2]: inactive
Activity (786-0 [4]): inactive
Activity [7]: inactive
Activity (786-0 [8]): inactive
Activity [10]: inactive
Activity [13]: inactive
Activity [15]: inactive
Activity [17]: inactive
Activity (786-0 [18]): inactive
Activity [20]: inactive

EC50 [19]: > 100 µM
SMILES: CC(=O)OC[C@]12CCCC(C)(C)[C@@H]1CC[C@]1(C)[C@@H]2C[C@H]2OC(=O)[C@H]3[C@H](C(C)=O)[C@@H](O)C[C@@H]1[C@]23C

EC50 [19]: 4.2 µM
SMILES: CC(=O)O[C@H]1C[C@H]2[C@@](C)(CC[C@H]3C(C)(C)CCC[C@@]32C=O)[C@@H]2CC=C(C(C)=O)[C@H](C=O)[C@@]12C

EC50 [19]: > 100 µM
SMILES: COc1cc2ccnc3c2c(c1OC)NC=C3 [AAPTAMINE]
